# Earlier results in US20240016170A1, “A ZINC FORTIFIED TEA COMPOSITION” (EKATERRA TEA MANUFACTURING USA LLC, priority 2020, published 2024).
# Details: water at 25° C.
smiles,measurement,value
[O]=[Zn] [zinc oxide],solubility,0.0004 g/100 g water
